US20230312639A1, “GPER PROTEOLYTIC TARGETING CHIMERAS” (University of Iowa Research Foundation, priority 2020, published 2023)

Columns and labels:
[1] = target: T1, HA-GPER (Homo sapiens, UniProt Q99527); experiment: Immunofluorescence with HA antibody, stably transfected HEK293 cells; type: cell-based; conditions: 100 µM, 1 hour
T1 construct: expressed in transfected cells

[2] = target: GPER (Homo sapiens, UniProt Q99527); experiment: Immunostaining of endogenous receptors in MCF-7 cells; conditions: MCF-7, 1 hour
Chain of GPER (Q99527 whole entry): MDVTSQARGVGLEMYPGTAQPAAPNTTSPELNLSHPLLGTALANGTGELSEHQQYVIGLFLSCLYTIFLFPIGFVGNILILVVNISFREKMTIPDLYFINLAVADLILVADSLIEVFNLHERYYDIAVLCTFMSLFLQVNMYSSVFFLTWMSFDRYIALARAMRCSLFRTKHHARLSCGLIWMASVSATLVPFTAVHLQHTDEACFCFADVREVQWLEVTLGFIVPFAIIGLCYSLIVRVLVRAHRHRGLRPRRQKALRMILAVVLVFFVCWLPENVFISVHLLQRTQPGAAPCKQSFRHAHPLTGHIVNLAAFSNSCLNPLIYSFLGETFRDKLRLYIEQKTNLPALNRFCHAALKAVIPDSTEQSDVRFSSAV

[3] = target: T2, HA-b1AR (Homo sapiens, UniProt P08588); experiment: Immunofluorescence with HA antibody, stably transfected HEK293 cells; type: cell-based; conditions: 100 µM, 1 hour
T2 construct: expressed in transfected cells
T2 sequence (P08588 whole entry): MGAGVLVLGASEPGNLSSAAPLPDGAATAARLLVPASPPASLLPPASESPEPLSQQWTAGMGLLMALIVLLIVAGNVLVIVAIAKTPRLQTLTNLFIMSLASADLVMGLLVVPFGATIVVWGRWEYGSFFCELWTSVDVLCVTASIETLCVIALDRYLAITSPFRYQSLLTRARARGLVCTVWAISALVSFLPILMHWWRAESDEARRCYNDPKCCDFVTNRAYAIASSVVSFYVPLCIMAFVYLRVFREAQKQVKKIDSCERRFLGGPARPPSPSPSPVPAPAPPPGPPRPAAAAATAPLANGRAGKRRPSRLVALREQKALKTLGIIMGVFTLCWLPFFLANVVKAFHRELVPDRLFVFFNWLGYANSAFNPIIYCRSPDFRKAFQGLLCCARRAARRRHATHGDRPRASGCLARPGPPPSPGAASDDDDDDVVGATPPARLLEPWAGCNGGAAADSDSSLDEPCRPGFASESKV

T1 sequence (Q99527 whole entry): as the sequence (Q99527 whole entry) above

In the case of Cc1ncsc1-c1ccc(CNC(=O)C2CC(O)CN2C(=O)C(NC(=O)COCCOCCOCCOCC(=O)OC2CCC3C4CCc5cc(O)ccc5C4CCC23C)C(C)(C)C)cc1 (stereo not drawn) [UI-EP001], the “degradation of HA-GPER” value [1] is reported as “specific degradation of HA-GPER was measured”, the “intracellular GPER expression” value [2] is reported as “Clear site-specific reduction” and the “off-target degradation of HA-b1AR” value [3] is reported as “without detectable off-target degradation”.
